Measured values as given in patent US7595053B2 (priority 2001, dated 2009).
Like-named read-outs stand apart in the source and are kept apart here.

Legend:
MAb Hs-2 = assay type: binding
MAb Hs-3 = assay type: binding
Mab Hs-1 = assay type: binding
[1] = system: Japanese encephalitis virus; assay type: in vivo, mice (BALB/C, C3H, SWISS/Albino); conditions: 50 ug peptide per mouse per dose sc with Freund's adjuvant every 14 days; FIGS. 3A-3C
[2] = system: Japanese encephalitis virus; assay type: in vivo, BALB/c mice; conditions: 40 ug conjugate per mouse per dose with Freund's adjuvant
[3] = system: Japanese encephalitis virus; assay type: in vivo, mice (C3H, BALB/c, SWISS); conditions: observed 21 days
[4] = system: Japanese encephalitis virus; assay type: cell-based, Porcine stable kidney cells; sera from mice
[5] = other strains of mice (BALB/c or SWISS)

Substance | Reactivity with monoclonal antibody Hs-2, OD values at 492 nm (MAb Hs-2) | Reactivity with monoclonal antibody Hs-3, OD values at 492 nm (MAb Hs-3) | Reactivity with monoclonal antibody Hs-1, OD values at 492 nm (Mab Hs-1) | other results
IVVEYSSS [270-IVVEYSSS-277] | 0.030 | 0.112 | 0.637 | 
SENHGNYSAQVGASQ [149-SENHGNYSAQVGASQ-163] | 0.415 | 0.377 | 0.093 | Anti Japanese encephalitis virus response by ELISA (in words) [1]: capable of eliciting an immune response against JE virus
LDVRMINI [41-LDVRMINI-48] | 0.007 | 0.082 | 0.277 | 
Ovalbumin |  |  |  | Reactivity of anti peptide sera with Japanese encephalitis virus by ELISA, mean optical density ([2]; sera collected on post inoculation day 7): 0.127 ± 0.022; Reactivity of anti peptide sera with Japanese encephalitis virus by ELISA, mean optical density ([2]; sera collected on post inoculation day 14): 0.116 ± 0.072; Reactivity of anti peptide sera with Japanese encephalitis virus by ELISA, mean optical density ([2]; sera collected on post inoculation day 21): 0.153 ± 0.003
VEYSSSVK [272-VEYSSSVK-279] | 0.040 | 0.106 | 0.290 | 
YSAQVGASQ [155-YSAQVGASQ-163] | 0.492 | 0.334 | 0.118 | 
PTLDVRMI [39-PTLDVRMI-46] | 0.006 | 0.025 | 0.313 | Reaction with Mab Hs-1 (in words) (Mab Hs-1): react with Mab Hs-1
NHGNYSAQVGASQ [151-NHGNYSAQVGASQ-163] | 0.294 | 0.258 | 0.074 | 
YSSSVKLT [274-YSSSVKLT-281] | 0.054 | 0.153 | 0.616 | 
TLDVRMIN [40-TLDVRMIN-47] | 0.008 | 0.064 | 0.329 | 
EYSSSVKL [273-EYSSSVKL-280] | 0.045 | 0.110 | 0.538 | 
ANDKPTLD [35-ANDKPTLD-42] | 0.016 | 0.052 | 0.022 | 
NIEASQLA [47-NIEASQLA-54] | 0.003 | 0.081 | 0.07 | 
SSSVKLTS [275-SSSVKLTS-282] | 0.053 | 0.136 | 0.765 | 
DVRMINIE [42-DVRMINIE-49] | 0.008 | 0.043 | 0.155 | 
MINIEASQ [45-MINIEASQ-52] | 0.001 | 0.080 | 0.177 | 
SSVKLTSG [276-SSVKLTSG-283] | 0.061 | 0.123 | 0.447 | 
VRMINIEA [43-VRMINIEA-50] | 0.012 | 0.133 | 0.338 | 
DKPTLDVR [37-DKPTLDVR-44] | 0.016 | 0.035 | 0.029 | 
VVEYSSSV [271-VVEYSSSV-278] | 0.029 | 0.090 | 0.659 | 
IMANDKPT [33-IMANDKPT-40] | 0.016 | 0.017 | 0.110 | 
H-SENHGNYSAQVGASQGSIGGVFNSIGKAVHQVFG-OH [chimeric peptide] |  |  |  | Anti Japanese encephalitis virus response by ELISA (in words) [1]: capable of eliciting an immune response against JE virus; Resistance to lethal virus challenge (survival) ([3]; C3H mice, challenge virus dose 2.3 log LD 50 i.p. followed by 1% starch i.c., FIG. 5): able to resist the virus challenge; Resistance to lethal virus challenge (survival) [3, 5]: nor were they able to resist the virus challenge; Neutralization of Japanese encephalitis virus by anti-peptide sera [4, 5]: not able to neutralize the virus; Neutralization of Japanese encephalitis virus by anti-peptide sera ([4]; sera from C3H mice, diluted 1:50, plaque reduction, FIG. 4): capable of neutralizing Japanese encephalitis virus
AIVVEYSS [269-AIVVEYSS-276] | 0.041 | 0.115 | 0.696 | Reaction with Mab Hs-1 (in words) (Mab Hs-1): react with Mab Hs-1
YSAQVGASQAAKF [155-YSAQVGASQAAKF-167] | 0.501 | 0.377 | 0.106 | 
